{"source": "patent US11801235B2", "about": "“Methods and compositions for delivery of biotin to mitochondria” (priority 2020, dated 2023)", "key": {"[1]": {"system": "ARPE-19 human retinal pigment epithelial cells", "experiment": "Biotin uptake by streptavidin-Alexa Fluor 594 fluorescence in ARPE-19 cells", "details": "1 uM, 1-hour incubation, serum-free", "procedure": "Cellular uptake and localization of peptide-conjugated biotin molecules were determined in HK-2 human renal epithelial cells and ARPE-19 human retinal pigment epithelial cells (ATCC, Manassas, VA). HK-2 cells were cultured in Dulbecco's Modified Eagle's Medium (DMEM) containing 1 g/L glucose and 10% fetal bovine serum (FBS), 100 units/ml penicillin and 100 ug/ml streptomycin. ARPE-19 cells were cultured in DMEM/F12 medium containing 1 g/L glucose and 10% fetal bovine serum (FBS), 100 units/ml penicillin and 100 ug/ml streptomycin. Cells were incubated in humidified incubator with 5% CO2 at 37° C. HK-2 cells and ARPE-19 cells were seeded in 35 mm dish at an initial density of 5×10^4 cells. FBS was removed from the culture medium for 3 days to deplete endogenous biotin in the cells. […]\nBiotin uptake was determined using Streptavidin binding. […] By using Alexa Fluor 594-conjugated streptavidin, it is possible to visualize biotin uptake using fluorescence microscopy. […] Live cell image buffer was added and Alexa-594 fluorescence (Ex/Em=591/614 nm) and Hoechst fluorescence ([…]) was observed using the Nikon Eclipse Ti2 fluorescence microscope (100×oil objective). Ten random fields from each sample were quantified by NIS-Elements Imaging Software (Nikon) for streptavidin fluorescence and normalized to Hoechst fluorescence to account for number of cells per field."}, "[2]": {"system": "ARPE-19 human retinal pigment epithelial cells", "experiment": "Mitochondrial localization: co-localization with cytochrome c oxidase subunit 4 (COX4)", "format": "cell-based", "details": "ARPE-19 cells, 1 uM, 2 hours, serum-free DMEM/F12", "procedure": "Cells were fixed with 4% PFA at RT for 10 min and then permeabilized with 0.1% Triton X-100 at RT for 10 min. Cells were blocked with 2% BSA (bovine serum albumin) at RT for 30 min, and then incubated with primary antibody for cytochrome c oxidase subunit 4 (COX4), a major protein complex expressed on the inner mitochondrial membrane. The rabbit polyclonal COX4 antibody (Invitrogen PAS-29992, Waltham, MA) was used at 1:500 dilution in 2% BSA at 4° C. overnight."}, "ARPE-19 cells [3]": {"system": "ARPE-19 cells", "experiment": "Cell number and viability after 30 days of serum deprivation", "format": "cell-based, human", "details": "10 nM", "procedure": "Cell viability was measured using the Alamar Blue Cell Proliferation Assay (Bio-Rad), according to manufacturer's protocol. Alamar Blue uses resazurin to measure reducing power of living cells. The weakly fluorescent resazurin is reduced to the highly fluorescent resorufin when reduced by cellular metabolism. Briefly, alamar blue reagent (10 ul) was added to the culture medium and incubated for 1 h at 37° C. Fluorescence from resorufin (Ex/Em 530/590 nm) was detected using a microplate reader (SpectraMax iD3, Molecular Devices).\nIn the second model, ARPE-19 cells were grown in serum-free DMEM in the absence or presence of peptide-conjugated biotin molecules for 30 days. Serum-free media was supplemented with 10 nM of SPN12, SPN15 or SPN16 compounds (all at 10 nM) was replaced every 3 days. Culture medium was replaced every 3 days."}, "[4]": {"system": "Human retinal pigment epithelial cells (ARPE-19)", "experiment": "Mitochondrial potential (TMRM/MitoView Green) after serum starvation", "format": "cell-based", "details": "ARPE-19 cells, 3 days of serum starvation, then 1 uM for 2 hours", "procedure": "ARPE-19 cells were seeded in 35 mm glass plates at an initial density of 5×10^4 cells. […] Cells were then incubated in serum-free DMEM/F12 alone (control group) or DMEM/F12 containing 1 uM of SPN12 or SPN15 for 2 hours.\nTo determine mitochondrial potential, live cells were incubated with 5 nM tetramethylrhodamine methyl ester (TMRM, #70017, Biotium, Fremont, CA) in DMEM without phenol red. TMRM is a potential-dependent fluorescent dye (Ex/Em=548/573). TMRM accumulates in negatively charged polarized mitochondria and can be detected as red fluorescence. Total mitochondria were imaged with a mitochondrial potential-independent fluorescent dye (100 nM MitoView Green; Ex/Em=490/523; #70054, Biotium, Fremont CA). Hoechst 33342 (10 ug/ml, Novus Biologicals, Centennial, CO) was added to stain nuclei. Live cells were covered with phosphate buffer and imaged using the Nikon Eclipse Ti fluorescent microscopy using the 60×water objective."}, "HK-2 cells": {"system": "HK-2 cells", "experiment": "In vitro scratch assay (scratch area)", "format": "cell-based, human", "details": "10 nM, serum-free, 24 hours", "procedure": "(§1) Certain exemplary peptide-conjugated biotin molecules can accelerate wound healing in cell cultures. The in vitro scratch assay is an easy and well-developed method to measure cell proliferation and migration over a “wound area” in vitro. This assay involves creating a “scratch” in a cell monolayer with a pipette tip and then examining the rate at which cells proliferate and migrate to close the scratch.\n3×10^5 cells were plated per well in 6-well plates in DMEM at 37° C. in a humidified incubator with 5% CO2 for one day prior to the experiment. To mimic the microenvironment of wounds in vitro, serum-free medium was used in the scratch assay. On the day of the scratch assay, the medium was replaced with serum-free DMEM, and a line scraped across the cell monolayer using a p1000 pipette tip. Cells were washed to remove cell debris and replaced with DMEM alone (control), or DMEM containing 10 nM biotin or peptide-conjugated biotin molecules.\n(§2) The scratch area was examined immediately (day 0) using a Nikon Eclipse Ti2 fluorescence microscope. Six different field were captured for each sample using 4×objective. The scratch area (cell-free zone) was calculated using ImageJ software, an open-source Java image processing program inspired by NIH Image (National Institute of Health). The scratch area was re-examined after 24 hours (day 1), and the area was normalized to the area determined on day 0 for the same sample. All results were calculated as change from no-treatment control and averaged for the six fields."}, "ARPE-19 cells [5]": {"system": "ARPE-19 cells", "experiment": "In vitro scratch assay (scratch area)", "format": "cell-based, human", "source_text": "as §1, §2"}, "mouse retina": {"system": "mouse retina", "details": "30 mg/kg ip", "procedure": "SPN15 (30 mg/kg) was administered ip to a 13-month-old male mouse (C57BL/6J strain). At 2-hours after administration, the mouse was anesthetized with an overdose of ketamine/xylazine, and the eyes enucleated. After the cornea and lens were removed, the eyecup was fixed for 1.25 hours in 4% paraformaldehyde in 0.1M Tris buffer. The eyecup was then rinsed 3 times for 10 minutes each in Tris buffer and then cryoprotected in 10%, 20%, and 30% sucrose before sectioning at 30 um with a Leica 3050 cryostat. Sections were stored at −20° C. until used.\nTo label biotin on SPN15, sections were incubated with Streptavidin conjugated AlexaFluor 594 (1:500) from Jackson ImmunoResearch, West Grove, PA). ToPro 3 (nuclear stain, 1:1000, Molecular Probes) was used to stain cell nuclei. Mitochondria localization was determined using an antibody to Cox IV (cytochrome c oxidase subunit 4; PA529992, 1:300, Invitrogen) and Mitotracker Red (1:1500 in Tris, Invitrogen). All incubations were carried out in microwave (150W) except for Cox IV and Mitotracker labeling, which was done with primary antibody overnight at 4° C. followed by secondary antibody (AF488 conjugated donkey anti-rabbit, Jackson Immunoresearch). Sections were imaged using the Olympus Fluoview 300 with helium, argon and neon lasers using 40× oil immersion lens at a resolution of 1024×1024."}, "[6]": {"details": "mouse, 2 hours after administration"}}, "note": "Square brackets hold non-standard residues; d marks the D form. Peptide text beside a SMILES is read from it. * marks the point of attachment. Biotin = O=C1N[C@H]2[C@H](CS[C@H]2CCCCC(=O)*)N1"}
{"molecule": "N=C(N)NCCC[C@@H](N)C(=O)N[C@@H](Cc1ccc(O)cc1)C(=O)N[C@H](CCCNC(=N)N)C(=O)N[C@@H](Cc1ccccc1)C(=O)N[C@@H](CCCCNC(=O)CCCC[C@@H]1SC[C@@H]2NC(=O)N[C@@H]21)C(N)=O", "note": "[SPN15, D-Arg-L-Tyr-D-Arg-L-Phe-L-Lys(biotinyl)-NH2] (H-[dR]Y[dR]FK(Biotin)-NH2; N-terminus assumed)", "values": [{"measurement": "intracellular streptavidin staining (cellular uptake of biotin), microscopic images FIG. 4", "setting": "[1]", "result": "intense red staining with a perinuclear distribution"}, {"measurement": "co-localization of biotin staining with COX4 staining (inner mitochondrial membrane), FIG. 6", "setting": "[2]", "result": "co-localization"}, {"measurement": "cell viability after serum deprivation compared to control, FIG. 9", "setting": "ARPE-19 cells [3]; 30 days of serum deprivation", "result": "doubled"}, {"measurement": "cell number after prolonged serum deprivation, microscopic images FIG. 8", "setting": "ARPE-19 cells [3]; 30 days serum-free", "result": "increased cell number"}, {"measurement": "mitochondrial potential (TMRM) and filamentous mitochondrial network, FIG. 14", "setting": "[4]", "result": "restore mitochondrial potential in all cells"}, {"measurement": "closure of the scratch area compared to control, FIG. 16 and FIG. 17", "setting": "HK-2 cells", "result": "significantly accelerated the closure of the scratch area"}, {"measurement": "effectiveness in reducing scratch area compared to free biotin, FIG. 16 and FIG. 17", "setting": "HK-2 cells", "result": "three times more effective"}, {"measurement": "wound healing (scratch closure), FIG. 18", "setting": "ARPE-19 cells [5]", "result": "accelerated wound healing"}, {"measurement": "absorption after ip administration", "setting": "mouse retina; living mouse, 2 hours", "result": "rapidly absorbed"}, {"measurement": "co-localization of streptavidin staining with COX4 staining in retina, FIG. 26", "setting": "mouse retina; [6]", "result": "co-localizes with COX4 staining in the RGC, IPL, INL, and the photoreceptor IS"}, {"measurement": "distribution of staining within retinal layers, FIG. 26", "setting": "mouse retina; [6]", "result": "concentrated in the inner and outer plexiform layers (IPL and OPL)"}, {"measurement": "staining in retinal pigment epithelium (RPE) cells, FIG. 27", "setting": "mouse retina; [6]", "result": "can clearly be seen in the RPE cells"}, {"measurement": "uptake into retina (Streptavidin Alexa Fluor 594 staining), FIG. 26", "setting": "mouse retina; [6]", "result": "clearly taken up in the different layers of the retina"}]}
